Experimental data reported in PubChem BioAssay (NCI).
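Protocol summary: plate cells (96-well), add compound at 5 concentrations, incubate 48 h, interpolate endpoints linearly. Here, GI50 denotes the concentration required for 50% inhibition of growth. TGI: total growth inhibition.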

Columns and labels:
Assay in all cases: NCI tumour cell line growth inhibition, 48 h
[1] = tested on: UACC-257 melanoma
[2] = tested on: T-47D breast
[3] = tested on: A498 renal
[4] = tested on: M14 melanoma
[5] = tested on: UO-31 renal
[6] = tested on: IGROV1 ovarian
[7] = tested on: PC-3 prostate
[8] = tested on: HCT-116 colon
[9] = tested on: A549 NSCLC
[10] = tested on: U251 CNS
[11] = tested on: SK-MEL-5 melanoma
[12] = tested on: MOLT-4 leukemia
[13] = tested on: RPMI-8226 leukemia
[14] = tested on: DU-145 prostate
[15] = tested on: SK-MEL-2 melanoma
[16] = tested on: OVCAR-5 ovarian
[17] = tested on: SF-539 CNS
[18] = tested on: SNB-19 CNS
[19] = tested on: CCRF-CEM leukemia
[20] = tested on: COLO 205 colon
[21] = tested on: SF-295 CNS
[22] = tested on: OVCAR-3 ovarian
[23] = tested on: SNB-75 CNS
[24] = tested on: SR leukemia
[25] = tested on: NCI-H522 lung
[26] = tested on: 786-0 renal
[27] = tested on: HS 578T breast
[28] = tested on: NCI-H226 lung
[29] = tested on: OVCAR-4 ovarian
[30] = tested on: SW-620 colon
[31] = tested on: ACHN renal
[32] = tested on: SN12C renal
[33] = tested on: NCI/ADR-RES ovarian
[34] = tested on: KM12 colon
[35] = tested on: HL-60(TB) leukemia
[36] = tested on: BT-549 breast
[37] = tested on: OVCAR-8 ovarian
[38] = tested on: SK-MEL-28 melanoma
[39] = tested on: HCT-15 colon
[40] = tested on: NCI-H23 lung
[41] = tested on: K-562 leukemia
[42] = tested on: MDA-MB-231 breast
[43] = tested on: HT29 colon
[44] = tested on: NCI-H460 lung
[45] = tested on: MCF7 breast
[46] = tested on: LOX IMVI melanoma
[47] = tested on: CAKI-1 renal
[48] = tested on: HOP-62 NSCLC
[49] = tested on: SK-OV-3 ovarian
[50] = tested on: SF-268 CNS
[51] = tested on: MDA-MB-435

## O=C(c1ccccc1)c1ccc(Cl)c([N+](=O)[O-])c1
[1]
  GI50: 6.26 µM
  TGI: 21.6 µM
[2]
  GI50: 7.54 µM
  TGI: 38.6 µM
[3]
  GI50: 16 µM
  TGI: 30.9 µM
[4]
  GI50: 4.37 µM
  TGI: 17.8 µM
[5]
  GI50: 2.25 µM
  TGI: 5.34 µM
[6]
  GI50: 7.92 µM
  TGI: 23.9 µM
[7]
  GI50: 8.22 µM
  TGI: 29.8 µM
[8]
  GI50: 4.78 µM
  TGI: 18.1 µM
[9]
  GI50: 16.3 µM
  TGI: 40.5 µM
[10]
  GI50: 7.35 µM
  TGI: 20.3 µM
[11]
  GI50: 14.7 µM
  TGI: 28.3 µM
[12]
  GI50: 4.17 µM
  TGI: 22.3 µM
[13]
  GI50: 3.64 µM
  TGI: 21.9 µM
[14]
  GI50: 3.69 µM
  TGI: 11.7 µM
[15]
  GI50: 2.96 µM
  TGI: 6.89 µM
[16]
  GI50: 4.38 µM
  TGI: 18.7 µM
[17]
  GI50: 5.1 µM
  TGI: 19 µM
[18]
  GI50: 16 µM
  TGI: 30.2 µM
[19]
  GI50: 3.18 µM
  TGI: 13.5 µM
[20]
  GI50: 5.01 µM
  TGI: 19.9 µM
[21]
  GI50: 17.8 µM
  TGI: 34.5 µM
[22]
  GI50: 3.83 µM
  TGI: 12.7 µM
[23]
  GI50: 4.74 µM
  TGI: 18.9 µM
[24]
  GI50: 3.04 µM
  TGI: 9.66 µM
[25]
  GI50: 1.41 µM
  TGI: 6.18 µM
[26]
  GI50: 21 µM
  TGI: 99.2 µM
[27]
  GI50: 17.5 µM
  TGI: 95.3 µM
[28]
  GI50: 19.8 µM
  TGI: 51.7 µM
[29]
  GI50: 1.73 µM
  TGI: 3.13 µM
[30]
  GI50: 5.27 µM
  TGI: 21.9 µM
[31]
  GI50: 7.14 µM
  TGI: 21.3 µM
[32]
  GI50: 3.81 µM
  TGI: 14.8 µM
[33]
  GI50: 21.3 µM
  TGI: 58.3 µM
[34]
  GI50: 5.97 µM
  TGI: 18.9 µM
[35]
  GI50: 2.56 µM
  TGI: 6.58 µM
[36]
  GI50: 16.7 µM
  TGI: 31.5 µM
[37]
  GI50: 4.7 µM
  TGI: 17.7 µM
[38]
  GI50: 5.59 µM
  TGI: 19 µM
[39]
  GI50: 2.95 µM
  TGI: 9.86 µM
[40]
  GI50: 16.2 µM
  TGI: 32.8 µM
[41]
  GI50: 3.44 µM
  TGI: 11.9 µM
[42]
  GI50: 3.61 µM
  TGI: 11.7 µM
[43]
  GI50: 3.43 µM
  TGI: 11.1 µM
[44]
  GI50: 18.5 µM
  TGI: 39.3 µM
[45]
  GI50: 2.56 µM
  TGI: 9.74 µM
[46]
  GI50: 2.43 µM
  TGI: 6.11 µM
[47]
  GI50: 5.5 µM
  TGI: 20.2 µM
[48]
  GI50: 13.8 µM
  TGI: 28.8 µM
[49]
  GI50: 15.8 µM
  TGI: 29.9 µM
[50]
  GI50: 4.48 µM
  TGI: 18 µM
[51]
  GI50: 4.53 µM
  TGI: 17.1 µM
